Measurements from US9446026B2, “Ocular formulations for drug-delivery to the posterior segment of the eye” (PanOptica, Inc., priority 2013, dated 2016).
Where two headings read alike, the source gives them in different places.

Test: Ocular fluid and tissue concentrations, 0.4% Compound-I cyclodextrin solutions (Example 7, 24-day study)
Assay type: in vivo, Dutch-Belted rabbits
Conditions: Dutch-Belted, rabbit, topical
Protocol: The ocular solution of Compound-I comprising cyclodextrin was prepared and tested in different groups of animals.

Which results are given for `Cl.NC(=O)c1c(OCc2c(F)cc(Br)cc2F)nsc1NC(=O)NCCCCN1CCCC1` [Compound-I, 3-[(4-bromo-2,6-difluorophenyl)methoxy]-5-[[[[4-(1-pyrrolidinyl)butyl]amino]carbonyl]amino]-4-isothiazolecarboxamide hydrochloride]?
concentration at 1 h (aqueous humor, 0.4 % (4 mg/mL), 30 μL/eye, Average concentration of Compound-I, Aqueous Humor, Group 8: 0.4% Compound-I in 8.41% KLEPTOSE HPB, 0.142% phosphate, 30 μL/eye, 2 doses per day): 6.56 nM; concentration at 1 h (aqueous humor, 0.4 % (4 mg/mL), 30 μL/eye, Average concentration of Compound-I, Aqueous Humor, Group 9: 0.4% Compound-I in […] KLEPTOSE HPB, 0.142% phosphate, 30 μL/eye, 2 doses per day): 3.13 nM; concentration at 1 h (aqueous humor, 0.4 % (4 mg/mL), 30 μL/eye, Average concentration of Compound-I, Aqueous Humor, Group 10: 0.4% Compound-I in 4.88% CAPTISOL, 0.142% phosphate, 30 μL/eye, 2 doses per day): 1.84 nM; concentration at 1 h (aqueous humor, 0.4 % (4 mg/mL), 30 μL/eye, Average concentration of Compound-I, Aqueous Humor, Group 11: 0.4% Compound-I in 4.88% CAPTISOL, […] phosphate, 30 μL/eye, 2 doses per day): 4.03 nM; concentration at 1 h (aqueous humor, 0.4 %, Aqueous humor concentration of Compound-I (range over groups), 0.4% Compound-I cyclodextrin solutions (KLEPTOSE or CAPTISOL), twice daily): 3.13 to 6.56 nM; concentration at 1 h (central choroid, 0.4 %): 259 to 769 nM; concentration at 1 h (central choroid, 0.4 % (4 mg/mL), 0.4% Ophthalmic Solution (CAPTISOL), Twice Daily 24 days, read-out: Central Choroid [Compound I]): 212 nM; concentration at 1 h (central choroid, 0.4 % (4 mg/mL), 0.4% Ophthalmic Solution (KLEPTOSE HP), Twice Daily 24 days, read-out: Central Choroid [Compound I]): 259 nM; concentration at 1 h (central choroid, 0.4 % (4 mg/mL), 0.4% Ophthalmic Solution (KLEPTOSE HPB), Twice Daily 24 days, read-out: Central Choroid [Compound I]): 769 nM; concentration at 1 h (central choroid, 0.4 % (4 mg/mL), 30 μL/eye, Average concentration of Compound-I, Central Choroid, Group 8: 0.4% Compound-I in 8.41% KLEPTOSE HPB, 0.142% phosphate, 30 μL/eye, 2 doses per day): 769 nM; concentration at 1 h (central choroid, 0.4 % (4 mg/mL), 30 μL/eye, Average concentration of Compound-I, Central Choroid, Group 9: 0.4% Compound-I in […] KLEPTOSE HPB, 0.142% phosphate, 30 μL/eye, 2 doses per day): 259 nM; concentration at 1 h (central choroid, 0.4 % (4 mg/mL), 30 μL/eye, Average concentration of Compound-I, Central Choroid, Group 10: 0.4% Compound-I in 4.88% CAPTISOL, 0.142% phosphate, 30 μL/eye, 2 doses per day): 212 nM; concentration at 1 h (central choroid, 0.4 % (4 mg/mL), 30 μL/eye, Average concentration of Compound-I, Central Choroid, Group 11: 0.4% Compound-I in 4.88% CAPTISOL, […] phosphate, 30 μL/eye, 2 doses per day): 345 nM; concentration at 1 h (central retina, 0.4 % (4 mg/mL), 30 μL/eye, Average concentration of Compound-I, Central Retina, Group 8: 0.4% Compound-I in 8.41% KLEPTOSE HPB, 0.142% phosphate, 30 μL/eye, 2 doses per day): 124 nM; concentration at 1 h (central retina, 0.4 % (4 mg/mL), 30 μL/eye, Average concentration of Compound-I, Central Retina, Group 9: 0.4% Compound-I in […] KLEPTOSE HPB, 0.142% phosphate, 30 μL/eye, 2 doses per day): 74.1 nM; concentration at 1 h (central retina, 0.4 % (4 mg/mL), 30 μL/eye, Average concentration of Compound-I, Central Retina, Group 10: 0.4% Compound-I in 4.88% CAPTISOL, 0.142% phosphate, 30 μL/eye, 2 doses per day): 53.1 nM; concentration at 1 h (central retina, 0.4 % (4 mg/mL), 30 μL/eye, Average concentration of Compound-I, Central Retina, Group 11: 0.4% Compound-I in 4.88% CAPTISOL, […] phosphate, 30 μL/eye, 2 doses per day): 101 nM; concentration at 1 h (central retina, 0.4 %, Central retina concentration of Compound-I (range over groups), 0.4% Compound-I cyclodextrin solutions (KLEPTOSE or CAPTISOL), twice daily): 53.1 to 124 nM; concentration at 1 h (cornea, 0.4 %): 6490 to 30000 nM; concentration at 1 h (cornea, 0.4 % (4 mg/mL), 0.4% Ophthalmic Solution (CAPTISOL), Twice Daily 24 days, read-out: Cornea [Compound I]): 6490 nM; concentration at 1 h (cornea, 0.4 % (4 mg/mL), 0.4% Ophthalmic Solution (KLEPTOSE HP), Twice Daily 24 days, read-out: Cornea [Compound I]): 8050 nM; concentration at 1 h (cornea, 0.4 % (4 mg/mL), 0.4% Ophthalmic Solution (KLEPTOSE HPB), Twice Daily 24 days, read-out: Cornea [Compound I]): 12300 nM; concentration at 1 h (cornea, 0.4 % (4 mg/mL), 30 μL/eye, Average concentration of Compound-I, Cornea, Group 8: 0.4% Compound-I in 8.41% KLEPTOSE HPB, 0.142% phosphate, 30 μL/eye, 2 doses per day): 12300 nM; concentration at 1 h (cornea, 0.4 % (4 mg/mL), 30 μL/eye, Average concentration of Compound-I, Cornea, Group 9: 0.4% Compound-I in […] KLEPTOSE HPB, 0.142% phosphate, 30 μL/eye, 2 doses per day): 8050 nM; concentration at 1 h (cornea, 0.4 % (4 mg/mL), 30 μL/eye, Average concentration of Compound-I, Cornea, Group 10: 0.4% Compound-I in 4.88% CAPTISOL, 0.142% phosphate, 30 μL/eye, 2 doses per day): 6490 nM; concentration at 1 h (cornea, 0.4 % (4 mg/mL), 30 μL/eye, Average concentration of Compound-I, Cornea, Group 11: 0.4% Compound-I in 4.88% CAPTISOL, […] phosphate, 30 μL/eye, 2 doses per day): 30000 nM
